Results as given in US10856562B2, “Flavor composition and edible compositions containing same” (MARS, INCORPORATED, priority 2013, dated 2020).
Entries after “also recorded” stand apart in the source; their conditions may differ. Square brackets hold non-standard residues; d marks the D form. Ends that are not written are not given here. pGlu = O=C1CC[C@@H](C(=O)O)N1

Tested on: panelists
Assay: Increased salt perception protocol: salt 5 reference (0.35% salt solution) re-tasted after expectoration of test sample
Assay type: in vivo, human
Conditions: for Astringent, after-expectoration perception / Bitter, after-expectoration perception / Flinty/Mineral, after-expectoration perception / Metallic, after-expectoration perception / Numbing, after-expectoration perception / Salt, after-expectoration perception (mean salt perception after expectoration) / Sour, after-expectoration perception / Sweet, after-expectoration perception: salt 5 reference re-tasted, mean score; for Level of the aromatics, basic tastes and chemical feeling factors after expectoration with increasing concentration / Salt perception from in-mouth to after expectoration: 0.1 to 40.0/50.0 ppb; for Salt perception after expectoration as the concentration increases: 0.1 to 40.0/50.0 ppb in 0.2% NaCl; for Umami like swelling of lips and tongue, after expectoration: all levels; for Salt perception from in-mouth to after expectoration: all samples
Source text: 1. Each panelist tasted a salt reference (0.35% salt solution) with a reference salt intensity of 5.0 which provided a baseline for each panelist for salt intensity. 2. Each panelist tasted a test sample (0.1 ppb, 0.5 ppb, 1.0 ppb, 10.0 ppb or 40.0 ppb all in 0.2% NaCl solution). Only one sample was tasted per session. 3. Each panelist re-tasted the salt reference (5.0 intensity) and rated it for salt intensity as well as any other basic taste, chemical feeling factor, or aromatic perceived. Thus, any increased salt perception as a result of the test sample would be determined, as well as any other perceptions present. Attribute Perception Protocol • The panelists evaluated each sample using the following procedure • Descriptive Profiles (flavor and chemical feeling factors) of 5 levels of salt enhancing solutions • Individual data was collected for the flavor and chemical feeling factors of the product in-mouth • Increased Salt Perception Protocol • Each panelist tasted salt 5 reference (0.35% salt solution)—to ground themselves on salt intensity of 5.0. • Each panelist tasted the test sample (0.1 ppb, 0.5 ppb, 1.0 ppb, 10.0 ppb or 40.0/50.0 ppb all in 0.2% NaCl solution: only one per session) • Each panelist then re-tasted the salt 5 reference and rated it for salt intensity as well as any other basic taste, chemical feeling factor, or aromatic perceived. This captured any increased salt perception indicated by the test sample as well as any other perceptions present. • Return to Baseline Protocol • After evaluating the sample for salt & other perceptions, panelists re-tasted the salt 5 reference at 1 minute intervals until their perception of the salt 5 saltiness intensity had returned to 5.0. Each panelist recorded their salt intensity at each interval and took qualitative notes on other perceptions seen in aftertaste. Sample Preparation

Substance: [pGlu]-Val-Val [SE-17]
- Astringent, after-expectoration perception (0.1 ppb in 0.2% NaCl): 0.0
- Bitter, after-expectoration perception (0.1 ppb in 0.2% NaCl): 0.0
- Flinty/Mineral, after-expectoration perception (0.1 ppb in 0.2% NaCl): 0.6
- Metallic, after-expectoration perception (0.1 ppb in 0.2% NaCl): 0.0
- Numbing, after-expectoration perception (0.1 ppb in 0.2% NaCl): 0.0
- Salt, after-expectoration perception (mean salt perception after expectoration) (0.1 ppb in 0.2% NaCl): 7.3
- Sour, after-expectoration perception (0.1 ppb in 0.2% NaCl): 0.0
- Sweet, after-expectoration perception (0.1 ppb in 0.2% NaCl): 0.0
- Level of the aromatics, basic tastes and chemical feeling factors after expectoration with increasing concentration: do not increase
- Salt perception after expectoration as the concentration increases: does not increase notably; also recorded: Does not show a notable increase
- Astringent, after-expectoration perception (0.5 ppb in 0.2% NaCl): 0.0
- Bitter, after-expectoration perception (0.5 ppb in 0.2% NaCl): 0.0
- Flinty/Mineral, after-expectoration perception (0.5 ppb in 0.2% NaCl): 0.7
- Metallic, after-expectoration perception (0.5 ppb in 0.2% NaCl): 0.2
- Numbing, after-expectoration perception (0.5 ppb in 0.2% NaCl): 0.0
- Salt, after-expectoration perception (mean salt perception after expectoration) (0.5 ppb in 0.2% NaCl): 8.1
- Sour, after-expectoration perception (0.5 ppb in 0.2% NaCl): 0.0
- Sweet, after-expectoration perception (0.5 ppb in 0.2% NaCl): 0.0
- Astringent, after-expectoration perception (1.0 ppb in 0.2% NaCl): 0.0
- Bitter, after-expectoration perception (1.0 ppb in 0.2% NaCl): 0.0
- Flinty/Mineral, after-expectoration perception (1.0 ppb in 0.2% NaCl): 0.5
- Metallic, after-expectoration perception (1.0 ppb in 0.2% NaCl): 0.0
- Numbing, after-expectoration perception (1.0 ppb in 0.2% NaCl): 0.0
- Salt, after-expectoration perception (mean salt perception after expectoration) (1.0 ppb in 0.2% NaCl): 7.3
- Sour, after-expectoration perception (1.0 ppb in 0.2% NaCl): 0.0
- Sweet, after-expectoration perception (1.0 ppb in 0.2% NaCl): 0.0
- Astringent, after-expectoration perception (10.0 ppb in 0.2% NaCl): 0.0
- Bitter, after-expectoration perception (10.0 ppb in 0.2% NaCl): 0.0
- Flinty/Mineral, after-expectoration perception (10.0 ppb in 0.2% NaCl): 0.3
- Metallic, after-expectoration perception (10.0 ppb in 0.2% NaCl): 0.0
- Numbing, after-expectoration perception (10.0 ppb in 0.2% NaCl): 0.0
- Salt, after-expectoration perception (mean salt perception after expectoration) (10.0 ppb in 0.2% NaCl): 7.2
- Sour, after-expectoration perception (10.0 ppb in 0.2% NaCl): 0.0
- Sweet, after-expectoration perception (10.0 ppb in 0.2% NaCl): 0.0
- Astringent, after-expectoration perception (50.0 ppb in 0.2% NaCl): 0.0
- Bitter, after-expectoration perception (50.0 ppb in 0.2% NaCl): 0.0
- Flinty/Mineral, after-expectoration perception (50.0 ppb in 0.2% NaCl): 0.4
- Metallic, after-expectoration perception (50.0 ppb in 0.2% NaCl): 0.0
- Numbing, after-expectoration perception (50.0 ppb in 0.2% NaCl): 0.0
- Salt, after-expectoration perception (mean salt perception after expectoration) (50.0 ppb in 0.2% NaCl): 7.7
- Sour, after-expectoration perception (50.0 ppb in 0.2% NaCl): 0.0
- Sweet, after-expectoration perception (50.0 ppb in 0.2% NaCl): 0.0
- Umami like swelling of lips and tongue, after expectoration: Panelists also experience Umami like swelling of lips and tongue
- Salt perception from in-mouth to after expectoration: increases after expectoration (from in-mouth) in all samples; also recorded: noticeable increase

Substance: [pGlu]-Val [SE-14]
- Astringent, after-expectoration perception (0.1 ppb in 0.2% NaCl): 0.0
- Bitter, after-expectoration perception (0.1 ppb in 0.2% NaCl): 0.0
- Flinty/Mineral, after-expectoration perception (0.1 ppb in 0.2% NaCl): 1.1
- Metallic, after-expectoration perception (0.1 ppb in 0.2% NaCl): 0.3
- Numbing, after-expectoration perception (0.1 ppb in 0.2% NaCl): 0.0
- Salt, after-expectoration perception (mean salt perception after expectoration) (0.1 ppb in 0.2% NaCl): 6.7
- Sour, after-expectoration perception (0.1 ppb in 0.2% NaCl): 0.0
- Sweet, after-expectoration perception (0.1 ppb in 0.2% NaCl): 0.0
- Level of the aromatics, basic tastes and chemical feeling factors after expectoration with increasing concentration: do not increase
- Salt perception after expectoration as the concentration increases: increases slightly; also recorded: slight increase
- Astringent, after-expectoration perception (0.5 ppb in 0.2% NaCl): 0.1
- Bitter, after-expectoration perception (0.5 ppb in 0.2% NaCl): 0.0
- Flinty/Mineral, after-expectoration perception (0.5 ppb in 0.2% NaCl): 1.0
- Metallic, after-expectoration perception (0.5 ppb in 0.2% NaCl): 0.1
- Numbing, after-expectoration perception (0.5 ppb in 0.2% NaCl): 0.0
- Salt, after-expectoration perception (mean salt perception after expectoration) (0.5 ppb in 0.2% NaCl): 7.0
- Sour, after-expectoration perception (0.5 ppb in 0.2% NaCl): 0.0
- Sweet, after-expectoration perception (0.5 ppb in 0.2% NaCl): 0.0
- Astringent, after-expectoration perception (1.0 ppb in 0.2% NaCl): 0.1
- Bitter, after-expectoration perception (1.0 ppb in 0.2% NaCl): 0.0
- Flinty/Mineral, after-expectoration perception (1.0 ppb in 0.2% NaCl): 0.5
- Metallic, after-expectoration perception (1.0 ppb in 0.2% NaCl): 0.1
- Numbing, after-expectoration perception (1.0 ppb in 0.2% NaCl): 0.0
- Salt, after-expectoration perception (mean salt perception after expectoration) (1.0 ppb in 0.2% NaCl): 7.0
- Sour, after-expectoration perception (1.0 ppb in 0.2% NaCl): 0.0
- Sweet, after-expectoration perception (1.0 ppb in 0.2% NaCl): 0.0
- Astringent, after-expectoration perception (10.0 ppb in 0.2% NaCl): 0.0
- Bitter, after-expectoration perception (10.0 ppb in 0.2% NaCl): 0.0
- Flinty/Mineral, after-expectoration perception (10.0 ppb in 0.2% NaCl): 1.0
- Metallic, after-expectoration perception (10.0 ppb in 0.2% NaCl): 0.2
- Numbing, after-expectoration perception (10.0 ppb in 0.2% NaCl): 0.0
- Salt, after-expectoration perception (mean salt perception after expectoration) (10.0 ppb in 0.2% NaCl): 7.3
- Sour, after-expectoration perception (10.0 ppb in 0.2% NaCl): 0.0
- Sweet, after-expectoration perception (10.0 ppb in 0.2% NaCl): 0.0
- Astringent, after-expectoration perception (50.0 ppb in 0.2% NaCl): 0.1
- Bitter, after-expectoration perception (50.0 ppb in 0.2% NaCl): 0.0
- Flinty/Mineral, after-expectoration perception (50.0 ppb in 0.2% NaCl): 0.6
- Metallic, after-expectoration perception (50.0 ppb in 0.2% NaCl): 0.1
- Numbing, after-expectoration perception (50.0 ppb in 0.2% NaCl): 0.0
- Salt, after-expectoration perception (mean salt perception after expectoration) (50.0 ppb in 0.2% NaCl): 8.0
- Sour, after-expectoration perception (50.0 ppb in 0.2% NaCl): 0.0
- Sweet, after-expectoration perception (50.0 ppb in 0.2% NaCl): 0.0
- Umami like swelling of lips and tongue, after expectoration: Panelists also experience Umami like swelling of lips and tongue
- Salt perception from in-mouth to after expectoration: increases after expectoration (from in-mouth) in all samples; also recorded: noticeable increase

Substance: [pGlu]-Val-Leu [SE-13]
- Astringent, after-expectoration perception (0.1 ppb in 0.2% NaCl): 0.0
- Bitter, after-expectoration perception (0.1 ppb in 0.2% NaCl): 0.1
- Flinty/Mineral, after-expectoration perception (0.1 ppb in 0.2% NaCl): 0.1
- Metallic, after-expectoration perception (0.1 ppb in 0.2% NaCl): 0.3
- Numbing, after-expectoration perception (0.1 ppb in 0.2% NaCl): 0.0
- Salt, after-expectoration perception (mean salt perception after expectoration) (0.1 ppb in 0.2% NaCl): 6.8
- Sour, after-expectoration perception (0.1 ppb in 0.2% NaCl): 0.0
- Sweet, after-expectoration perception (0.1 ppb in 0.2% NaCl): 0.0
- Level of the aromatics, basic tastes and chemical feeling factors after expectoration with increasing concentration: do not increase
- Salt perception after expectoration as the concentration increases: increases slightly; also recorded: slight increase
- Salt perception after expectoration as the concentration increases (listed as pGlu-Val-Leu): increased slightly
- Astringent, after-expectoration perception (0.5 ppb in 0.2% NaCl): 0.0
- Bitter, after-expectoration perception (0.5 ppb in 0.2% NaCl): 0.0
- Flinty/Mineral, after-expectoration perception (0.5 ppb in 0.2% NaCl): 0.1
- Metallic, after-expectoration perception (0.5 ppb in 0.2% NaCl): 0.3
- Numbing, after-expectoration perception (0.5 ppb in 0.2% NaCl): 0.1
- Salt, after-expectoration perception (mean salt perception after expectoration) (0.5 ppb in 0.2% NaCl): 6.4
- Sour, after-expectoration perception (0.5 ppb in 0.2% NaCl): 0.0
- Sweet, after-expectoration perception (0.5 ppb in 0.2% NaCl): 0.0
- Astringent, after-expectoration perception (1.0 ppb in 0.2% NaCl): 0.0
- Bitter, after-expectoration perception (1.0 ppb in 0.2% NaCl): 0.0
- Flinty/Mineral, after-expectoration perception (1.0 ppb in 0.2% NaCl): 0.2
- Metallic, after-expectoration perception (1.0 ppb in 0.2% NaCl): 0.1
- Numbing, after-expectoration perception (1.0 ppb in 0.2% NaCl): 0.0
- Salt, after-expectoration perception (mean salt perception after expectoration) (1.0 ppb in 0.2% NaCl): 7.5
- Sour, after-expectoration perception (1.0 ppb in 0.2% NaCl): 0.0
- Sweet, after-expectoration perception (1.0 ppb in 0.2% NaCl): 0.0
- Astringent, after-expectoration perception (10.0 ppb in 0.2% NaCl): 0.0
- Bitter, after-expectoration perception (10.0 ppb in 0.2% NaCl): 0.0
- Flinty/Mineral, after-expectoration perception (10.0 ppb in 0.2% NaCl): 0.1
- Metallic, after-expectoration perception (10.0 ppb in 0.2% NaCl): 0.3
- Numbing, after-expectoration perception (10.0 ppb in 0.2% NaCl): 0.0
- Salt, after-expectoration perception (mean salt perception after expectoration) (10.0 ppb in 0.2% NaCl): 8.2
- Sour, after-expectoration perception (10.0 ppb in 0.2% NaCl): 0.0
- Sweet, after-expectoration perception (10.0 ppb in 0.2% NaCl): 0.0
- Astringent, after-expectoration perception (40.0 ppb in 0.2% NaCl): 0.0
- Bitter, after-expectoration perception (40.0 ppb in 0.2% NaCl): 0.0
- Flinty/Mineral, after-expectoration perception (40.0 ppb in 0.2% NaCl): 0.3
- Metallic, after-expectoration perception (40.0 ppb in 0.2% NaCl): 0.2
- Numbing, after-expectoration perception (40.0 ppb in 0.2% NaCl): 0.0
- Salt, after-expectoration perception (mean salt perception after expectoration) (40.0 ppb in 0.2% NaCl): 8.3
- Sour, after-expectoration perception (40.0 ppb in 0.2% NaCl): 0.0
- Sweet, after-expectoration perception (40.0 ppb in 0.2% NaCl): 0.0
- Umami like swelling of lips and tongue, after expectoration: Panelists also experience Umami like swelling of lips and tongue
- Salt perception from in-mouth to after expectoration: increases after expectoration in all samples; also recorded: noticeable increase
- Salt perception from in-mouth to after expectoration (listed as pGlu-Val-Leu): increased after expectoration in all samples
